Assay results: patent US10100022B2, “Sphingosine kinase inhibitors” (University of Virginia Patent Foundation, priority 2014, dated 2018)
Counter-ions that a name gives are not always drawn.

Assays:
[1] = target: T1, human sphingosine kinase type 2 (hSPHK2) (Homo sapiens, UniProt Q9NRA0); experiment: Sphingosine kinase assay, recombinant human SPHK2 ([32P]S1P product, scintillation counting); assay type: biochemical; details: read-out: activity hSPHK2 (range estimate of KI)
T1 construct: purchased; host or cells: Sf9 insect cells (baculovirus)
T1 sequence (Q9NRA0 1-654): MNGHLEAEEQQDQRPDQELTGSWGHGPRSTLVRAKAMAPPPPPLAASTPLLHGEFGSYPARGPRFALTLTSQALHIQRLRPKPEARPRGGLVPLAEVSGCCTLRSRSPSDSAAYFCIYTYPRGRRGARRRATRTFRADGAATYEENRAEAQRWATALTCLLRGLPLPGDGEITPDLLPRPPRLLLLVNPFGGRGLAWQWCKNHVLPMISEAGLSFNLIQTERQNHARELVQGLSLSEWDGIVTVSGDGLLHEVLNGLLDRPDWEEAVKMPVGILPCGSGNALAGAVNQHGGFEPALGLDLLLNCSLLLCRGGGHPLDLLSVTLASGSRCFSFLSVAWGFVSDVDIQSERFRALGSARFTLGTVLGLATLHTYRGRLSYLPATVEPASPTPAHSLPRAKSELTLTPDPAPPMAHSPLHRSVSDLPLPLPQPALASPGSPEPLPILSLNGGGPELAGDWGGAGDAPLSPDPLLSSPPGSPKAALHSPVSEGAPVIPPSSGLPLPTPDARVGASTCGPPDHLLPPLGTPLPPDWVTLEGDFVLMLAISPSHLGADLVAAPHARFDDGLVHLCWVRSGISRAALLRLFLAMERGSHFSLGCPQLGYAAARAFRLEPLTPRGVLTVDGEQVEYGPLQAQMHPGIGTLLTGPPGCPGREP
Experimental: (§1) Recombinant baculovirus encoding human sphingosine kinase type 1 (SPHK1) was used to infect Sf9 insect cells and after 2-5 days, cleared lysates were prepared and used without further purification. Human SPHK2, which was partially purified from baculovirus-infected Sf9 cell lysates, was purchased from a commercial source. Sphingosine kinase assays were performed using standard protocols. Product [^32P]S1P was recovered by binding to cation exchange paper and quantified by scintillation counting.

[2] = target: T2, human sphingosine kinase type 1 (hSPHK1) (Homo sapiens, UniProt Q9NYA1); experiment: Sphingosine kinase assay, recombinant human SPHK1 ([32P]S1P product, scintillation counting); assay type: biochemical; details: read-out: activity hSPHK1 (range estimate of KI)
T2 construct: made in house; host or cells: Sf9 insect cells (baculovirus)
Experimental: as §1

T2 sequence (Q9NYA1 whole entry): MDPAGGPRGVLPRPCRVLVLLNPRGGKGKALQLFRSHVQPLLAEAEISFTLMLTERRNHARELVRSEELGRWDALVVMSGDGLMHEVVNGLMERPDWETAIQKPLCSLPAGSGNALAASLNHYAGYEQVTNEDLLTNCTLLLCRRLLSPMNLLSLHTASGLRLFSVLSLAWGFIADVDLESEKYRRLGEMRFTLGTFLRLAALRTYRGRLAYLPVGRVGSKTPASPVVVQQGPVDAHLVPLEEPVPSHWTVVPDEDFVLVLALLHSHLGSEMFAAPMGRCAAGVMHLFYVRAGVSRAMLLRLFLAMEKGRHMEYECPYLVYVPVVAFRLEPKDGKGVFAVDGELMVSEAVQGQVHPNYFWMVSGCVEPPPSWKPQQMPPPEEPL

| Ki [1] [µM] | Ki [2] [µM] | SMILES |
| --- | --- | --- |
| < 1 | > 10 | COc1ccc(CCc2ccc(-c3noc([C@@H]4CCCN4C(=N)N)n3)cc2C(F)(F)F)cc1 [Compound 42A, (S)-2-(3-(4-(4-methoxyphenethyl)-3-(trifluoromethyl)phenyl)-1,2,4-oxadiazol-5-yl)pyrrolidine-1-carboximidamide hydrochloride] |
| < 1 | 1 to 10 | N=C(N)N1CC[C@H](O)[C@H]1c1nc(-c2ccc(CCC3CCCC3)c(C(F)(F)F)c2)no1 [Compound 43A, (2S,3S)-2-(3-(4-(2-cyclopentylethyl)-3-(trifluoromethyl)phenyl)-1,2,4-oxadiazol-5-yl)-3-hydroxypyrrolidine-1-carboximidamide hydrochloride] |
| 1 to 10 | > 10 | N=C(N)N1CCC[C@H]1c1nc(-c2ccc(CCC3CCCC3)c(C(F)(F)F)c2)no1 [Compound 44A, (S)-2-(3-(4-(2-cyclopentylethyl)-3-(trifluoromethyl)phenyl)-1,2,4-oxadiazol-5-yl)pyrrolidine-1-carboximidamide hydrochloride] |
| 1 to 10 | > 10 | C=CCn1c(CCCOc2ccc(-c3noc([C@@H]4[C@@H](O)CCN4C(=N)N)n3)cc2C(F)(F)F)nc2ccccc21 [Compound 47A, ((2S,3S)-2-(3-(4-(3-(1-allyl-1H-benzo[d]imidazol-2-yl)propoxy)-3-(trifluoromethyl)phenyl)-1,2,4-oxadiazol-5-yl)-3-hydroxypyrrolidin-1-yl)(amino)methaniminium chloride] |
| 1 to 10 | > 10 | CCCCCCCCOc1ccc(-c2noc([C@@H]3C[C@H](F)CN3C(=N)N)n2)cc1C(F)(F)F [Compound 48A, (2S,4S)-4-fluoro-2-(3-(4-(octyloxy)-3-(trifluoromethyl)phenyl)-1,2,4-oxadiazol-5-yl)pyrrolidine-1-carboximidamide 2,2,2-trifluoroacetate] |
| < 1 | > 10 | CCCCCCCCOc1ccc(-c2noc([C@@H]3C[C@@H](F)CN3C(=N)N)n2)cc1C(F)(F)F [Compound 49A] |
| < 1 | > 10 | CCc1ccc(CCc2ccc(-c3noc([C@@H]4CCCN4C(=N)N)n3)cc2C(F)(F)F)cc1 [Compound 50A, (S)-2-(3-(4-(4-ethylphenethyl)-3-(trifluoromethyl)phenyl)-1,2,4-oxadiazol-5-yl)pyrrolidine-1-carboximidamide hydrochloride] |
| > 10 | > 10 | N=C(N)N1CCC[C@H]1c1nc(-c2ccc3cc(O)ccc3c2)no1 [Compound 51A, (S)-amino(2-(3-(6-hydroxynaphthalen-2-yl)-1,2,4-oxadiazol-5-yl)pyrrolidin-1-yl)methaniminium chloride] |
| 1 to 10 | > 10 | N=C(N)N1CCC[C@H]1c1nc(-c2ccc3cc(OCc4ccc(Br)cc4)ccc3c2)no1 [Compound 53A, (S)-amino(2-(3-(6-((4-bromobenzyl)oxy)naphthalen-2-yl)-1,2,4-oxadiazol-5-yl)pyrrolidin-1-yl)methaniminium chloride] |
| > 10 | > 10 | N=C(N)N1CCC[C@H]1c1nc(-c2ccc3cc(OCCc4ccc(C(F)(F)F)cc4)ccc3c2)no1 [Compound 54A, (S)-amino(2-(3-(6-(4-(trifluoromethyl)phenethoxy)naphthalen-2-yl)-1,2,4-oxadiazol-5-yl)pyrrolidin-1-yl)methaniminium chloride] |
| > 10 | > 10 | N=C(N)N1CCC[C@H]1c1nc(-c2ccc3cc(OCCc4ccccc4C(F)(F)F)ccc3c2)no1 [Compound 55A, (S)-amino(2-(3-(6-(2-(trifluoromethyl)phenethoxy)naphthalen-2-yl)-1,2,4-oxadiazol-5-yl)pyrrolidin-1-yl)methaniminium chloride] |
| > 10 | > 10 | COCCCOc1ccc2cc(-c3noc([C@@H]4CCCN4C(=N)N)n3)ccc2c1 [Compound 57A, (S)-amino(2-(3-(6-(3-methoxypropoxy)naphthalen-2-yl)-1,2,4-oxadiazol-5-yl)pyrrolidin-1-yl)methaniminium chloride] |
| > 10 | > 10 | N=C(N)N1CCC[C@H]1c1nc(-c2ccc3cc(OCc4cccc(Br)c4)ccc3c2)no1 [Compound 58A, (S)-amino(2-(3-(6-((3-bromobenzyl)oxy)naphthalen-2-yl)-1,2,4-oxadiazol-5-yl)pyrrolidin-1-yl)methaniminium chloride] |
| > 10 | > 10 | N=C(N)N1C[C@H](O)C[C@H]1c1nc(-c2ccc(OCCCc3ccc4c(c3)OCCO4)c(C(F)(F)F)c2)no1 [Compound 59A] |
| > 10 | > 10 | N=C(N)N1CCC[C@H]1c1nc(-c2ccc3cc(OCCc4cccc(C(F)(F)F)c4)ccc3c2)no1 [Compound 60A, (S)-amino(2-(3-(6-(3-(trifluoromethyl)phenethoxy)naphthalen-2-yl)-1,2,4-oxadiazol-5-yl)pyrrolidin-1-yl)methaniminium chloride] |
| < 1 | > 10 | CC(C)(C)c1ccc(CCc2ccc(-c3noc([C@@H]4CCCN4C(=N)N)n3)cc2C(F)(F)F)cc1 [Compound 61A] |
| > 10 | > 10 | Cc1ccc(COc2ccc3cc(-c4noc([C@@H]5CCCN5C(=N)N)n4)ccc3c2)cc1 [Compound 64A, (S)-amino(2-(3-(6-((4-methylbenzyl)oxy)naphthalen-2-yl)-1,2,4-oxadiazol-5-yl)pyrrolidin-1-yl)methaniminium chloride] |
| > 10 | > 10 | N=C(N)N1CCC[C@H]1c1nc(-c2ccc3cc(OCC4CCCC4)ccc3c2)no1 [Compound 66A, (S)-amino(2-(3-(6-(cyclopentylmethoxy)naphthalen-2-yl)-1,2,4-oxadiazol-5-yl)pyrrolidin-1-yl)methaniminium chloride] |
| 1 to 10 | > 10 | N=C(N)N1CCC[C@H]1c1nc(-c2ccc3cc(OCc4cccc(C(F)(F)F)c4)ccc3c2)no1 [Compound 67A, (S)-amino(2-(3-(6-((3-(trifluoromethyl)benzyl)oxy)naphthalen-2-yl)-1,2,4-oxadiazol-5-yl)pyrrolidin-1-yl)methaniminium chloride] |
| > 10 | > 10 | N=C(N)N1CCC[C@H]1c1nc(-c2ccc3cc(OCc4cccc(Cl)c4)ccc3c2)no1 [Compound 68A, (S)-amino(2-(3-(6-((3-chlorobenzyl)oxy)naphthalen-2-yl)-1,2,4-oxadiazol-5-yl)pyrrolidin-1-yl)methaniminium chloride] |
| > 10 | > 10 | N=C(N)N1CCC[C@H]1c1nc(-c2ccc3cc(OCc4ccc(Cl)cc4)ccc3c2)no1 [Compound 69A, (S)-amino(2-(3-(6-((4-chlorobenzyl)oxy)naphthalen-2-yl)-1,2,4-oxadiazol-5-yl)pyrrolidin-1-yl)methaniminium chloride] |
| 1 to 10 | > 10 | N#Cc1ccc(COc2ccc3cc(-c4noc([C@@H]5CCCN5C(=N)N)n4)ccc3c2)cc1 [Compound 70A, (S)-amino(2-(3-(6-((4-cyanobenzyl)oxy)naphthalen-2-yl)-1,2,4-oxadiazol-5-yl)pyrrolidin-1-yl)methaniminium chloride] |
| 1 to 10 | > 10 | N=C(N)N1CCC[C@H]1c1nc(-c2ccc3cc(OCc4ccc(-c5ccccc5)cc4)ccc3c2)no1 [Compound 72A, (S)-(2-(3-(6-([1,1′-biphenyl]-4-ylmethoxy)naphthalen-2-yl)-1,2,4-oxadiazol-5-yl)pyrrolidin-1-yl)(amino)methaniminium chloride] |
| > 10 | > 10 | N=C(N)N1CCC[C@H]1c1nc(-c2ccc3cc(OCc4ccccc4)ccc3c2)no1 [Compound 73A, (S)-amino(2-(3-(6-(benzyloxy)naphthalen-2-yl)-1,2,4-oxadiazol-5-yl)pyrrolidin-1-yl)methaniminium chloride] |

| SMILES | Ki [1] [µM] | Ki [2] [µM] |
| --- | --- | --- |
| N=C(N)N1CCC[C@H]1c1nc(-c2ccc(OCCCCO)c(C(F)(F)F)c2)no1 [Compound 45A, (S)-2-(3-(4-(4-hydroxybutoxy)-3-(trifluoromethyl)phenyl)-1,2,4-oxadiazol-5-yl)pyrrolidine-1-carboximidamide hydrochloride] | 1 to 10 | > 10 |
| COCCCCOc1ccc(-c2noc([C@@H]3CCCN3C(=N)N)n2)cc1C(F)(F)F [Compound 46A, (S)-2-(3-(4-(4-methoxybutoxy)-3-(trifluoromethyl)phenyl)-1,2,4-oxadiazol-5-yl)pyrrolidine-1-carboximidamide 2,2,2-trifluoroacetate] | > 10 | > 10 |
| COCCCCOc1ccc2cc(-c3noc([C@@H]4CCCN4C(=N)N)n3)ccc2c1 [Compound 65A, (S)-amino(2-(3-(6-(4-methoxybutoxy)naphthalen-2-yl)-1,2,4-oxadiazol-5-yl)pyrrolidin-1-yl)methaniminium chloride] | > 10 | > 10 |
